Laboratory results from ChEMBL document CHEMBL4270560, “Novel curcumin analogue hybrids: Synthesis and anticancer activity” (Eur J Med Chem, 2018).
Active and inactive are the calls of the source. No cut-off for these calls is given here.

How the values were obtained:
[1] = test system: SMMC-7721; test: Antiproliferative activity against human SMMC7721 cells after 48 hrs by MTT assay; assay type: functional, cell-based; conditions: SMMC-7721, 48 h
[2] = test system: SGC-7901; test: Cell cycle arrest in human SGC7901 cells assessed as accumulation at G1 phase at 600 nM after 48 hrs by propidium iodide staining based flow cytometric analysis (reference value: 47.93%); assay type: functional
[3] = test system: SGC-7901; test: Cell cycle arrest in human SGC7901 cells assessed as accumulation at S phase at 600 nM after 48 hrs by propidium iodide staining based flow cytometric analysis (reference value: 33.30%); assay type: functional
[4] = test system: SGC-7901; test: Cell cycle arrest in human SGC7901 cells assessed as accumulation at G1 phase at 1000 nM after 48 hrs by propidium iodide staining based flow cytometric analysis (reference value: 47.93%); assay type: functional
[5] = test system: SGC-7901; test: Cell cycle arrest in human SGC7901 cells assessed as accumulation at G2 phase at 1000 nM after 48 hrs by propidium iodide staining based flow cytometric analysis (reference value: 18.77%); assay type: functional
[6] = test system: SGC-7901; test: Cell cycle arrest in human SGC7901 cells assessed as accumulation at G1 phase at 1200 nM after 48 hrs by propidium iodide staining based flow cytometric analysis (reference value: 47.93%); assay type: functional
[7] = test system: SGC-7901; test: Induction of mitochondrial membrane depolarization in human SGC7901 cells assessed as cells with mitochondrial membrane potential loss at 800 nM after 48 hrs by JC-1 staining based flow cytometric analysis (reference value: 9.29%); assay type: functional
[8] = test system: SGC-7901; test: Induction of mitochondrial membrane depolarization in human SGC7901 cells assessed as cells with intact mitochondrial membrane potential at 800 nM after 48 hrs by JC-1 staining based flow cytometric analysis (reference value: 87.3%); assay type: functional
[9] = test system: SGC-7901; test: Induction of mitochondrial membrane depolarization in human SGC7901 cells assessed as cells with mitochondrial membrane potential loss at 1000 nM after 48 hrs by JC-1 staining based flow cytometric analysis (reference value: 9.29%); assay type: functional
[10] = test system: SGC-7901; test: Induction of mitochondrial membrane depolarization in human SGC7901 cells assessed as cells with intact mitochondrial membrane potential at 1000 nM after 48 hrs by JC-1 staining based flow cytometric analysis (reference value: 87.3%); assay type: functional
[11] = test system: SGC-7901; test: Induction of mitochondrial membrane depolarization in human SGC7901 cells assessed as cells with mitochondrial membrane potential loss at 1200 nM after 48 hrs by JC-1 staining based flow cytometric analysis (reference value: 1.65 to 9.29%); assay type: functional
[12] = test system: SGC-7901; test: Induction of mitochondrial membrane depolarization in human SGC7901 cells assessed as cells with intact mitochondrial membrane potential at 1200 nM after 48 hrs by JC-1 staining based flow cytometric analysis (reference value: 87.3 to 98%); assay type: functional
[13] = test system: SGC-7901; test: Induction of mitochondrial membrane depolarization in human SGC7901 cells assessed as cells with intact mitochondrial membrane potential at 1000 nM after 48 hrs in presence of NAC by JC-1 staining based flow cytometric analysis (reference value: 98%); assay type: functional
[14] = test system: SGC-7901; test: Induction of mitochondrial membrane depolarization in human SGC7901 cells assessed as cells with intact mitochondrial membrane potential at 1200 nM after 48 hrs in presence of NAC by JC-1 staining based flow cytometric analysis (reference value: 98%); assay type: functional
[15] = test system: SGC-7901; test: Induction of apoptosis in human SGC7901 cells after 48 hrs by Annexin V-FITC/propidium iodide staining based flow cytometric analysis; assay type: functional, cell-based
[16] = test system: SGC-7901; test: Induction of apoptosis in human SGC7901 cells assessed as early apoptotic cells at 600 nM after 48 hrs by Annexin V-FITC/propidium iodide staining based flow cytometric analysis (reference value: 2.30%); assay type: functional
[17] = test system: SGC-7901; test: Induction of apoptosis in human SGC7901 cells assessed as late apoptotic cells at 600 nM after 48 hrs by Annexin V-FITC/propidium iodide staining based flow cytometric analysis (reference value: 1.73%); assay type: functional
[18] = test system: SGC-7901; test: Induction of apoptosis in human SGC7901 cells assessed as necrotic cells at 600 nM after 48 hrs by Annexin V-FITC/propidium iodide staining based flow cytometric analysis (reference value: 0.052%); assay type: functional
[19] = test system: SGC-7901; test: Induction of apoptosis in human SGC7901 cells assessed as viable cells at 600 nM after 48 hrs by Annexin V-FITC/propidium iodide staining based flow cytometric analysis (reference value: 95.9%); assay type: functional; conditions: SGC-7901, 48 h, read-out: Activity
[20] = test system: SGC-7901; test: Induction of apoptosis in human SGC7901 cells assessed as early apoptotic cells at 1000 nM after 48 hrs by Annexin V-FITC/propidium iodide staining based flow cytometric analysis (reference value: 0.851 to 2.30%); assay type: functional
[21] = test system: SGC-7901; test: Induction of apoptosis in human SGC7901 cells assessed as necrotic cells at 1000 nM after 48 hrs by Annexin V-FITC/propidium iodide staining based flow cytometric analysis (reference value: 0.052 to 0.304%); assay type: functional
[22] = test system: SGC-7901; test: Induction of apoptosis in human SGC7901 cells assessed as early apoptotic cells at 1200 nM after 48 hrs by Annexin V-FITC/propidium iodide staining based flow cytometric analysis (reference value: 0.851 to 2.30%); assay type: functional
[23] = test system: SGC-7901; test: Induction of apoptosis in human SGC7901 cells assessed as late apoptotic cells at 1200 nM after 48 hrs by Annexin V-FITC/propidium iodide staining based flow cytometric analysis (reference value: 1.73 to 2.85%); assay type: functional
[24] = test system: SGC-7901; test: Induction of apoptosis in human SGC7901 cells assessed as viable cells at 1200 nM after 48 hrs by Annexin V-FITC/propidium iodide staining based flow cytometric analysis (reference value: 95.9 to 96%); assay type: functional; conditions: SGC-7901, 48 h, read-out: Activity
[25] = test system: SGC-7901; test: Induction of apoptosis in human SGC7901 cells assessed as early apoptotic cells at 1000 nM after 48 hrs in presence of NAC by Annexin V-FITC/propidium iodide staining based flow cytometric analysis (reference value: 0.851%); assay type: functional
[26] = test system: SGC-7901; test: Induction of apoptosis in human SGC7901 cells assessed as early apoptotic cells at 1200 nM after 48 hrs in presence of NAC by Annexin V-FITC/propidium iodide staining based flow cytometric analysis (reference value: 0.851%); assay type: functional
[27] = test system: SGC-7901; test: Induction of apoptosis in human SGC7901 cells assessed as late apoptotic cells at 1200 nM after 48 hrs in presence of NAC by Annexin V-FITC/propidium iodide staining based flow cytometric analysis (reference value: 2.85%); assay type: functional
[28] = biological target: T1, Thioredoxin reductase (Homo sapiens) (UniProt Q16881+Q9NNW7+Q86VQ6); test: Inhibition of TrxR in human SGC7901 cells assessed as p38 phosphorylation at 600 to 1200 nM after 48 hrs by Western blot analysis; assay type: cell-based
[29] = test system: SGC-7901; test: Induction of apoptosis in human SGC7901 cells assessed as increase in Bax to Bcl-2 ratio level at 600 to 1200 nM after 48 hrs by Western blot analysis; assay type: functional, cell-based
[30] = biological target: T1, Thioredoxin reductase (Homo sapiens); test: Inhibition of TrxR in human SGC7901 cells assessed as p38 phosphorylation at 1200 nM after 48 hrs in presence of NAC by Western blot analysis; assay type: cell-based
[31] = test system: SGC-7901; test: Induction of apoptosis in human SGC7901 cells assessed as increase in Bax to Bcl-2 ratio level at 1200 nM after 48 hrs in presence of NAC by Western blot analysis; assay type: functional, cell-based

IC50 [1]: 3.18 µM
inhibition [28]: Active
inhibition [30]: inactive
Compound: COc1cc(OC)c2c(=O)c(OCCCOc3ccccc3/C=C/C(=O)/C=C/c3ccccn3)c(-c3cc(OC)c(OC)c(OC)c3)oc2c1
Activity [2]: 48.92%
Activity [3]: 35.47%
Activity [4]: 55.28%
Activity [5]: 10.44%
Activity [6]: 45.78%
Activity [7]: 21.2%
Activity [8]: 75.7%
Activity [9]: 39.9%
Activity [10]: 56.3%
Activity [11]: 55.4 - 63.7%
Activity [12]: 35.4 - 40.2%
Activity [13]: 97.3%
Activity [14]: 97.5%
Activity [15]: Dose-dependent effect
Activity [16]: 5.79%
Activity [17]: 6.4%
Activity [18]: 0.132%
viability at 0.6 µM [19]: 87.7%
Activity [20]: 24.7 - 32.2%
Activity [21]: 0.256 - 1.04%
Activity [22]: 29.8 - 55.2%
Activity [23]: 20.1 - 24.9%
viability at 1.2 µM [24]: 24.6 to 43.7%
Activity [25]: 2.13%
Activity [26]: 4.46%
Activity [27]: 21.2%
Activity [29]: Active
Activity [31]: inactive
